As a reminder, the IC50 is the point on the concentration scale where inhibition reaches its midpoint. High values mean weaker potency, low ones greater potency.

Our source for the IC50 values is patent US9242996B2 (Novartis AG, priority 2013, dated 2016).

activated ERK2, sequence (P28482 whole entry): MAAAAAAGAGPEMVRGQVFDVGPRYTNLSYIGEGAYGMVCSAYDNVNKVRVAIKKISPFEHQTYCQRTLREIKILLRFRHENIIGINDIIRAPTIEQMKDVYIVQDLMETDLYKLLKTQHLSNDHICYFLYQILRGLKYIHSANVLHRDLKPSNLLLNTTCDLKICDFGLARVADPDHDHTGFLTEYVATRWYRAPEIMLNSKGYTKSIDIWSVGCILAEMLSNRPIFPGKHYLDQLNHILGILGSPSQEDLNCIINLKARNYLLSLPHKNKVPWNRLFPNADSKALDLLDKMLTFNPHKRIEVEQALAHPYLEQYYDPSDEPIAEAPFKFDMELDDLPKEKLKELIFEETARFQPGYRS

The test addresses activated ERK2 (Homo sapiens (Human), UniProt P28482). As to the kind of experiment: Activated ERK2 (20 pM) Kinase Assay (AlphaScreen, ERKtide phosphorylation). The class given is biochemical. To be noted: 0.02 nM ERK2, 400 nM ERKtide peptide, 35 μM ATP, 30 min preincubation. Put shortly:
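AlphaScreen read-out (anti-phospho-EGFR Thr669 antibody, protein A acceptor/streptavidin donor beads) of ERKtide (400 nM) phosphorylation by 20 pM activated ERK2 at 35 μM ATP.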
A general note: Bead proximity is the source of the signal in Alpha formats.
In turn, `NC[C@@H](NC(=O)c1ccc(-c2nc([C@H]3CC[C@H](O)CC3)cnc2N)cc1F)c1cc(F)cc(Br)c1` [Example 342, N-((S)-2-amino-1-(3-bromo-5-fluorophenyl)ethyl)-4-(3-amino-6-((1r,4S)-4-hydroxycyclohexyl)pyrazin-2-yl)-2-fluorobenzamide] had a concentration for half-maximal inhibition (IC50) of 17.3 pM.

`NC[C@@H](NC(=O)c1ccc(-c2nc([C@H]3CC[C@H](O)CC3)cnc2N)cc1F)c1cccc(I)c1` [Example 343, N-((S)-2-amino-1-(3-iodophenyl)ethyl)-4-(3-amino-6-((1r,4S)-4-hydroxy-cyclohexyl)pyrazin-2-yl)-2-fluorobenzamide]: half-maximal inhibition (IC50) was put at 11 pM.

In the case of `Nc1ncc([C@H]2CC[C@H](O)CC2)nc1-c1ccc(C(=O)N[C@H](CO)c2cc(F)cc(I)c2)c(F)c1` [Example 344, 4-(3-amino-6-((1r,4S)-4-hydroxy-cyclohexyl)pyrazin-2-yl)-2-fluoro-N-((S)-1-(3-fluoro-5-iodophenyl)-2-hydroxyethyl) benzamide], the IC50 was 9.77 pM.

With `Nc1ncc([C@H]2CC[C@@H](O)CC2)nc1-c1ccc(C(=O)N[C@H](CO)c2cc(F)cc(I)c2)c(F)c1` [Example 345, 4-(3-amino-6-((1s,4R)-4-hydroxy-cyclohexyl)pyrazin-2-yl)-2-fluoro-N-((S)-1-(3-fluoro-5-iodophenyl)-2-hydroxyethyl) benzamide], half-maximal inhibition (IC50) was put at 95.6 pM.

`Nc1ncc([C@H]2CC[C@H](O)CC2)nc1-c1ccc(C(=O)N[C@H](CO)c2cccc(I)c2)c(F)c1` [Example 346, 4-(3-amino-6-((1r,4S)-4-hydroxy-cyclohexyl)pyrazin-2-yl)-2-fluoro-N-((S)-2-hydroxy-1-(3-iodophenyl)ethyl) benzamide] returned an IC50 of 17.5 pM.

Regarding `Nc1ncc([C@H]2CC[C@@H](O)CC2)nc1-c1ccc(C(=O)N[C@H](CO)c2cccc(I)c2)c(F)c1` [Example 347, 4-(3-amino-6-((1s,4R)-4-hydroxy-cyclohexyl)pyrazin-2-yl)-2-fluoro-N-((S)-2-hydroxy-1-(3-iodophenyl)ethyl) benzamide], inhibition was half-maximal at 193 pM (IC50).

In turn, `CNC[C@@H](NC(=O)c1ccc(-c2nc([C@@H]3CC[C@@H](O)[C@@H](F)C3)cnc2N)cc1F)c1cc(F)cc(Br)c1` [Example 355, 4-(3-amino-6-((1R,3S,4R)-3-fluoro-4-hydroxy-cyclohexyl)pyrazin-2-yl)-N-((S)-1-(3-bromo-5-fluorophenyl)-2-(methylamino)ethyl)-2-fluorobenzamide] displayed a 50% inhibitory concentration (IC50) of 23 pM.

As for `CNC[C@@H](NC(=O)c1ccc(-c2nc([C@H]3CC[C@H](O)[C@H](F)C3)cnc2N)cc1F)c1cc(F)cc(Br)c1` [Example 356, 4-(3-amino-6-((1S,3R,4S)-3-fluoro-4-hydroxy-cyclohexyl)pyrazin-2-yl)-N-((S)-1-(3-bromo-5-fluorophenyl)-2-(methylamino)ethyl)-2-fluorobenzamide], the concentration for half-maximal inhibition (IC50) is 31.7 pM.

Regarding `CNC[C@@H](NC(=O)c1ccc(-c2nc([C@H]3CC[C@H](O)[C@@H](F)C3)cnc2N)cc1F)c1cc(F)cc(I)c1` [Example 357, 4-(3-amino-6-((1S,3S,4S)-3-fluoro-4-hydroxy-cyclohexyl)pyrazin-2-yl)-2-fluoro-N-((S)-1-(3-fluoro-5-iodophenyl)-2-(methylamino)ethyl)benzamide], half-maximal inhibition (IC50) required 14.3 pM.

`CNC[C@@H](NC(=O)c1ccc(-c2nc([C@@H]3CC[C@@H](O)[C@H](F)C3)cnc2N)cc1F)c1cc(F)cc(I)c1` [Example 358, 4-(3-amino-6-((1R,3R,4R)-3-fluoro-4-hydroxy-cyclohexyl)pyrazin-2-yl)-2-fluoro-N-((S)-1-(3-fluoro-5-iodophenyl)-2-(methylamino)ethyl)benzamide] came in with a 50% inhibitory concentration (IC50) of 20.5 pM.

The compound `CNC[C@@H](NC(=O)c1ccc(-c2nc([C@@H]3CC[C@@H](O)[C@H](F)C3)cnc2N)cc1F)c1cccc(Br)c1` [Example 359, 4-(3-amino-6-((1R,3R,4R)-3-fluoro-4-hydroxy-cyclohexyl)pyrazin-2-yl)-N-((S)-1-(3-bromophenyl)-2-(methylamino)ethyl)-2-fluorobenzamide] had a half-maximal inhibitory concentration (IC50) of 76 pM.

For the compound `CNC[C@@H](NC(=O)c1ccc(-c2nc([C@H]3CC[C@H](O)CC3)cnc2N)cc1F)c1cc(F)cc(I)c1` [Example 360, 4-(3-amino-6-((1r,4S)-4-hydroxy-cyclohexyl)pyrazin-2-yl)-2-fluoro-N-((S)-1-(3-fluoro-5-iodophenyl)-2-(methylamino)ethyl)benzamide], the IC50 turned out to be 6.65 pM.

Consider `CNC[C@@H](NC(=O)c1ccc(-c2nc([C@@H]3CC[C@@H](O)[C@H](F)C3)cnc2N)cc1F)c1cc(F)cc(Br)c1` [Example 361, 4-(3-amino-6-((1R,3R,4R)-3-fluoro-4-hydroxy-cyclohexyl)pyrazin-2-yl)-N-((S)-1-(3-bromo-5-fluorophenyl)-2-(methylamino)ethyl)-2-fluorobenzamide], for which the 50% inhibitory concentration (IC50) worked out at 104 pM.

`CNC[C@@H](NC(=O)c1ccc(-c2nc(C3CCOCC3)cnc2N)cc1F)c1cc(F)cc(Br)c1` [Example 365, (S)-4-(3-amino-6-(tetrahydro-2H-pyran-4-yl)pyrazin-2-yl)-N-(1-(3-bromo-5-fluorophenyl)-2-(methylamino)ethyl)-2-fluorobenzamide] yielded an IC50 of 20.8 pM.

Consider `CCNC[C@@H](NC(=O)c1ccc(-c2nc(C3CCOCC3)cnc2N)cc1F)c1cc(F)cc(Br)c1` [Example 371, (S)-4-(3-amino-6-(tetrahydro-2H-pyran-4-yl)pyrazin-2-yl)-N-(1-(3-bromo-5-fluorophenyl)-2-(ethylamino)ethyl)-2-fluorobenzamide], for which half-maximal inhibition (IC50) was put at 30 pM.

`NC[C@@H](NC(=O)c1ccc(-c2nc([C@H]3CC[C@H](O)CC3)cnc2N)cc1F)c1cc(F)cc(I)c1` [Example 373, N-((S)-2-amino-1-(3-fluoro-5-iodophenyl)ethyl)-4-(3-amino-6-((1r,4S)-4-hydroxy-cyclohexyl)pyrazin-2-yl)-2-fluorobenzamide] returned an IC50 of 8.37 pM.

`CNC[C@@H](NC(=O)c1ccc(-c2nc([C@H]3CC[C@H](OC)CC3)cnc2N)cc1F)c1cc(F)cc(Br)c1` [Example 374, 4-(3-amino-6-((1r,4S)-4-methoxy-cyclohexyl)pyrazin-2-yl)-N-((S)-1-(3-bromo-5-fluorophenyl)-2-(methylamino)ethyl)-2-fluorobenzamide] showed an IC50 of 20.5 pM.

As to `CNC[C@@H](NC(=O)c1ccc(-c2nc([C@H]3CC[C@H](OC)CC3)cnc2N)cc1F)c1cccc(Br)c1` [Example 375, 4-(3-amino-6-((1r,4S)-4-methoxy-cyclohexyl)pyrazin-2-yl)-N-((S)-1-(3-bromophenyl)-2-(methylamino)ethyl)-2-fluorobenzamide], 40.1 pM corresponded to half-maximal inhibition (IC50).

Compound `CNC[C@@H](NC(=O)c1ccc(-c2nc([C@H]3CC[C@H](O)CC3)cnc2N)cc1F)c1cc(F)cc(Br)c1` [Example 376, 4-(3-amino-6-((1r,4S)-4-hydroxy-cyclohexyl)pyrazin-2-yl)-N-((S)-1-(3-bromo-5-fluorophenyl)-2-(methylamino)ethyl)-2-fluorobenzamide] yielded a concentration for half-maximal inhibition (IC50) of 18.3 pM.

Compound `CNC[C@@H](NC(=O)c1ccc(-c2nc([C@H]3CC[C@H](OC)CC3)cnc2N)cc1F)c1cccc(Cl)c1` [Example 377, 4-(3-amino-6-((1r,4S)-4-methoxy-cyclohexyl)pyrazin-2-yl)-N-((S)-1-(3-chlorophenyl)-2-(methylamino)ethyl)-2-fluorobenzamide] came in with a half-maximal inhibitory concentration (IC50) of 70 pM.

In turn, `CCNC[C@@H](NC(=O)c1ccc(-c2nc(C3CCOCC3)cnc2N)cc1F)c1cccc(Br)c1` [Example 378, (S)-4-(3-amino-6-(tetrahydro-2H-pyran-4-yl)pyrazin-2-yl)-N-(1-(3-bromophenyl)-2-(ethylamino)ethyl)-2-fluorobenzamide] registered a half-inhibitory concentration (IC50) of 24.8 pM.

Turning to `CCNC[C@@H](NC(=O)c1ccc(-c2nc([C@H]3CC[C@H](O)CC3)cnc2N)cc1F)c1cccc(Br)c1` [Example 379, 4-(3-amino-6-((1r,4S)-4-hydroxy-cyclohexyl)pyrazin-2-yl)-N-((S)-1-(3-bromophenyl)-2-(ethylamino)ethyl)-2-fluorobenzamide], the IC50 is 61.7 pM.

Take `CNC[C@@H](NC(=O)c1ccc(-c2nc(C3CCOCC3)cnc2N)cc1F)c1cccc(Br)c1` [Example 380, (S)-4-(3-amino-6-(tetrahydro-2H-pyran-4-yl)pyrazin-2-yl)-N-(1-(3-bromophenyl)-2-(methylamino)ethyl)-2-fluorobenzamide]: the IC50 was found to be 9.7 pM.

Compound `CNC[C@@H](NC(=O)c1ccc(-c2nc([C@H]3CC[C@H](O)CC3)cnc2N)cc1F)c1cccc(Br)c1` [Example 381, 4-(3-amino-6-((1r,4S)-4-hydroxy-cyclohexyl)pyrazin-2-yl)-N-((S)-1-(3-bromophenyl)-2-(methylamino)ethyl)-2-fluorobenzamide] showed a half-maximal inhibitory concentration (IC50) of 20.9 pM.

For `CO[C@H]1CC[C@H](c2cnc(N)c(-c3ccc(C(=O)N[C@H](CN)c4cc(F)cc(I)c4)c(F)c3)n2)CC1` [Example 382, N-((S)-2-amino-1-(3-fluoro-5-iodophenyl)ethyl)-4-(3-amino-6-((1r,4S)-4-methoxy-cyclohexyl)pyrazin-2-yl)-2-fluorobenzamide], the IC50 was 10.7 pM.

In turn, `CO[C@H]1CC[C@H](c2cnc(N)c(-c3ccc(C(=O)N[C@H](CN)c4cccc(Br)c4)c(F)c3)n2)CC1` [Example 383, N-((S)-2-amino-1-(3-bromophenyl)ethyl)-4-(3-amino-6-((1r,4S)-4-methoxy-cyclohexyl)pyrazin-2-yl)-2-fluorobenzamide] came in with a half-maximal inhibitory concentration (IC50) of 68.9 pM.

Compound `CSc1cccc([C@@H](CO)NC(=O)c2ccc(-c3nc(C4CCOCC4)cnc3N)cc2F)c1` [Example 387, (S)-4-(3-amino-6-(tetrahydro-2H-pyran-4-yl)pyrazin-2-yl)-2-fluoro-N-(2-hydroxy-1-(3-(methylthio)phenyl)ethyl)benzamide] displayed an IC50 of 10 pM.
